Earlier results, collected in patent publication US20060287500A1, “Method for synthesis of C2-symmetric diamino diol mediated by titanium complexes” (priority 2005, published 2006).

How the values were obtained:
[1] = biological target: HIV protease (Human immunodeficiency virus type 1 group M subtype B, UniProt P04585); conditions: in vitro
[2] = test system: HIV, SIV, FIV and many of the 150 different clinical mutant strains
[3] = biological target: FIV protease (Feline immunodeficiency virus, UniProt P16088); conditions: in vitro
[4] = test system: FIV; conditions: feline model

CC(C)[C@H](NC(=O)[C@H](C)NC(=O)OCc1ccccc1)C(=O)N[C@@H](Cc1ccccc1)[C@@H](O)[C@H](O)[C@H](Cc1ccccc1)NC(=O)[C@@H](NC(=O)[C@H](C)NC(=O)OCc1ccccc1)C(C)C [TL-3]
Ki [1]: 1.5 nM | effectiveness against HIV, SIV, FIV and clinical mutant strains [2]: equally effective | Ki [3]: 41 nM | drug resistance developing against the inhibitor [4]: No evidence for drug resistance developing
